Assay results reported in ChEMBL document CHEMBL3044803, “Impact of tricyclazole and azoxystrobin on growth, sporulation and secondary infection of the rice blast fungus, Magnaporthe oryzae” (Pest Manag Sci, 2013).
≈ marks a conversion by molar mass, not a printed value. Calls of active or inactive are those of the source. No cut-off for these calls is given here.

What was measured:
[1] = test system: Pyricularia oryzae; experiment: Fungicidal activity against Magnaporthe oryzae from perennial ryegrass; assay type: functional; settings: read-out: ED50 (the source's name)
[2] = test system: Pyricularia oryzae; experiment: microbe, parasite or virus in culture; assay type: functional; settings: 168 h
[3] = test system: Pyricularia grisea; experiment: Fungicidal activity against Magnaporthe grisea; assay type: functional; settings: read-out: ED50 (the source's name)
[4] = test system: Pyricularia oryzae; experiment: microbe, parasite or virus in culture; assay type: functional; settings: for EC50: Pyricularia oryzae, 168 h, read-out: ED50 (the source's name)
[5] = test system: Pyricularia oryzae; experiment: Fungicidal activity against Magnaporthe oryzae assessed as reduction of appressorium diameter of conidia at 0.01 to 1 mg/l at 26 degC measured after 7 days; assay type: functional, organism-based
[6] = test system: Pyricularia oryzae; experiment: microbe, parasite or virus in culture; assay type: functional, organism-based; settings: 168 h
[7] = test system: Pyricularia oryzae; experiment: Fungicidal activity against Magnaporthe oryzae assessed as germination of conidia at 0.01 mg/l at 26 degC measured after 7 days; assay type: functional, organism-based
[8] = test system: Pyricularia oryzae; experiment: Fungicidal activity against Magnaporthe oryzae assessed as germination of conidia at 1 mg/l at 26 degC measured after 7 days; assay type: functional
[9] = test system: Pyricularia oryzae; experiment: microbe, parasite or virus in culture; settings: 168 h, read-out: INH

Row | Compound | EC50 [1] | inhibition at 1 µg/mL [2] | EC50 [3] | ED90 [4] | EC50 [4] | Activity [5] | EC50 [6] | Activity [7] | Activity [8] | inhibition at 5 µg/mL [9]
1 | CO/C=C(/C(=O)OC)c1ccccc1Oc1cc(Oc2ccccc2C#N)ncn1 [AZOXYSTROBIN] | 0.013 µg/mL (≈ 0.0322 µM) | 95% | 1.8 µg/mL (≈ 4.46 µM) | 69.58 µg/mL (≈ 172 µM) | 0.044 µg/mL (≈ 0.109 µM) | Active | 0.017 µg/mL (≈ 0.0421 µM) | inactive | 67.1% | –
2 | Cc1cccc2sc3nncn3c12 [TRICYCLAZOLE] | – | – | – | 215.64 µg/mL (≈ 1140 µM) | 1 µg/mL (≈ 5.31 µM) | – | 0.072 µg/mL (≈ 0.38 µM) | – | – | 95%
